From patent US9657018B2, “Antagonists acting at multiple prostaglandin receptors for the treatment of inflammation” (Allergan, Inc., priority 2014, dated 2017)
Structures can show the parent of a compound that is named as a salt.

molecular target: T1, human prostanoid DP1 receptor (Homo sapiens, UniProt Q13258); experiment: FLIPR Ca2+ signaling antagonist assay, DP1 receptor stable cell line; assay type: cell-based; parameters: key to FLIPR data DP1 (Kb): PAg = partial agonist; Ag = agonist; NA = not active; conditions: human recombinant DP1 + chimeric Gqs in HEK-293 EBNA cells; standard agonist BW 245C; NA = no antagonism or Kb>=10,000 nM
T1 construct: expressed in transfected cells
T1 sequence (Q13258 1-359): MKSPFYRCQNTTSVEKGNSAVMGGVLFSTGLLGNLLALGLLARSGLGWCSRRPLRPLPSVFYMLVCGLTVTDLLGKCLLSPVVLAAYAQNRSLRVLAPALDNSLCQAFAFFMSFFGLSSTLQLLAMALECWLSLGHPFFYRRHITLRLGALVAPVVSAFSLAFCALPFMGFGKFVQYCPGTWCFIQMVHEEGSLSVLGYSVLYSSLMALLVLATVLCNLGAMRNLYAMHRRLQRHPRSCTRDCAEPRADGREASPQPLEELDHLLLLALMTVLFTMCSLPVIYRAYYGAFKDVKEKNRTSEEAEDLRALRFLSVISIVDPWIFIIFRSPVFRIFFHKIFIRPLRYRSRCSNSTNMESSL
Procedure: The above compounds were tested for PG antagonist activity as follows using human recombinant prostanoid receptor (DP1, EP1-4, FP, IP and TP) stable cell lines:
In order to measure the response of Gs and Gi coupled prostanoid receptors as a Ca^2+ signal, chimeric G protein cDNAs were used. Stable cell lines over-expressing human prostanoid DP1, EP1-4, FP, IP, and TP receptors were established as follows:
Briefly, human prostanoid DP1, EP2, and EP4 receptor cDNAs were co-transfected with chimeric Gqs cDNA containing a haemagglutanin (HA) epitope; human prostanoid EP3 receptors were co-transfected with chimeric Gqi-HA; human EP1, FP, IP, and TP receptor cDNAs were expressed with no exogenous G-proteins. Gqs and Gqi chimeric cDNAs (Molecular Devices, Sunnyvale, Calif., U.S.A.), as well as cDNAs of prostanoid receptors, were cloned into a pCEP4 vector with a hygromycin B selection marker. Transfection into HEK-293 EBNA (Epstein-Barr virus nuclear antigen) cells was achieved by the FuGENE 6 transfection Reagent (Roche Applied Science, Indianapolis, Ind., USA). Stable transfectants were selected according to hygromycin resistance. Because Gqs and Gqi contained an HA epitope, G-protein expression was detected by Western blotting analysis using anti-mouse HA monoclonal antibody and horseradish peroxidase (HRP)-conjugated secondary antibody, while functional expression of prostanoid receptors was detected by FLIPR screening (Matias et al., 2004). These stable cell lines were validated using previously published antagonists at 10 μM against serial dilutions of standard agonists by FLIPR functional assays for Ca^2+ Signaling (as described below).
Ca^2+ signaling studies were performed using a FLIPR TETRA system (Molecular Devices, Sunnyvale, Calif., USA) in the 384-format. This is a high-throughput instrument for cell-based assays to monitor Ca^2+ signaling associated with GPCRs and ion channels. Cells were seeded at a density of 5×10^4 cells/well in BioCoat poly-D-lysine coated, black wall, clear bottom 384-well plates (BD Biosciences, Franklin lakes, NJ, USA) and allowed to attach overnight in an incubator at 37° C. The cells were then washed twice with HBSS-HEPES buffer (Hanks' balanced salt solution without bicarbonate and phenol red, 20 mM HEPES, pH 7.4) using an ELx405 Select CW Microplate Washer (BioTek, Winooski, Vt., USA). After 60 min of dye-loading in the dark using the Ca^2+-sensitive dye Fluo-4AM (Invitrogen, Carlsbad, Calif., USA), at a final concentration of 2×10^−6M, the plates were washed 4 times with HBSS-HEPES buffer to remove excess dye and leaving 50 μl of buffer in each well. The plates were then placed in the FLIPR TETRA instrument and allowed to equilibrate at 37° C. AGN-211377 was added in a 25 μl volume to each well to give final concentrations of 0.1 μl. M, 0.4M, 1 μM, 3 μl. M, 10 μl. M, and 30 μl. M; or 0.067 μM, 0.4M, 0.67 μM, and 1 μM for cells over-expressing TP receptors. After 4.5 minutes, a 7-point serial dilution of the standard agonist for the corresponding receptor, in a 25 μl volume was injected at the final concentrations from 10^−11M to 10^−5M in 10-fold serial dilution increments for cells expressing human recombinant DP1, EP1, EP2, EP3, EP4, FP, and IP receptors. The dose range for the standard agonist for human recombinant TP receptors was from 10^−12M to 10^−6M. HBSS-HEPES buffer was used as the negative control for the standard agonists. Cells were excited with LED (light emitting diode) excitation at 470-495 nm and emission was measured through an emission filter at 515-575 nm. Assay plates were read for 3.5 minutes using the FLIPR^TETRA. The peak increase in fluorescence intensity was recorded for each well. On each plate, negative controls, dose response of positive controls, and co-treatments of antagonist-agonist for each dose were in triplicates. Standard agonists were as follows: DP=BW 245C, EP1-EP4=PGE2, FP=17-phenyl-PGF2a, IP=Cicaprost, and TP=U-46619. […]

Compound	Kb [nM]	FLIPR data DP1 (Kb)
CC(C)Cn1ncc2cc(Br)cc(Cn3ncc4cc(C(=O)O)ccc43)c21 [Compound 42, 1-(5-Bromo-1-isobutyl-1H-indazol-7-ylmethyl)-1H-indazole-5-carboxylic acid]	590	–
CC(C)Cn1ncc2cc(C(F)(F)F)cc(Cn3ncc4cc(C(=O)O)ccc43)c21 [Compound 44, 1-(1-Isobutyl-5-trifluoromethyl-1H-indazol-7-ylmethyl)-1H-indazole-5-carboxylic acid]	1000	–
CC(C)Cn1ncc2cc(OC(F)(F)F)cc(Cn3ncc4cc(C(=O)O)ccc43)c21 [Compound 45, 1-(1-Isobutyl-5-trifluoromethoxy-1H-indazol-7-ylmethyl)-1H-indazole-5-carboxylic acid]	300	–
CC(C)n1ncc2cc(Br)cc(Cn3ncc4cc(C(=O)O)ccc43)c21 [Compound 46, 1-(5-Bromo-1-isopropyl-1H-indazol-7-ylmethyl)-1H-indazole-5-carboxylic acid]	> 10000	–
CCC(CC)Cn1ncc2cc(Br)cc(Cn3ncc4cc(C(=O)O)ccc43)c21 [Compound 47, 1-[5-Bromo-1-(2-ethyl-butyl)-1H-indazol-7-ylmethyl]-1H-indazole-5-carboxylic acid]	1400	–
CCCn1ncc2cc(Cl)cc(Cn3ncc4cc(C(=O)O)ccc43)c21 [Compound 48]	5500	–
Cc1nn(Cc2cc(Br)cc3cnn(CC(C)C)c23)c2ccc(C(=O)O)cc12 [Compound 53, 1-(5-Bromo-1-isobutyl-1H-indazol-7-ylmethyl)-3-methyl-1H-indazole-5-carboxylic acid]	640	–
Cc1nn(Cc2cc(Br)cc3cnn(CC(C)C)c23)c2ncc(C(=O)O)cc12 [Compound 54, 1-(5-Bromo-1-isobutyl-1H-indazol-7-ylmethyl)-3-methyl-1H-pyrazolo[3,4-b]pyridine-5-carboxylic HCl salt]	200	–
CC(C)Cn1ncc2cc(C(F)(F)F)cc(Cn3cnc4cc(C(=O)O)ccc43)c21 [Compound 55, 1-(1-Isobutyl-5-trifluoromethyl-1H-indazol-7-ylmethyl)-1H-benzoimidazole-5-carboxylic acid]	> 10000	–
CC(C)Cn1ncc2cc(OC(F)(F)F)cc(Cn3cnc4cc(C(=O)O)ccc43)c21 [Compound 56, 1-(1-Isobutyl-5-trifluoromethoxy-1H-indazol-7-ylmethyl)-1H-benzoimidazole-5-carboxylic acid]	5200	–

Next, values leading:

Kb [nM]	FLIPR data DP1 (Kb)	Compound
460	–	CC(C)Cn1ncc2cc(Cl)cc(Cn3ncc4cc(C(=O)O)ccc43)c21 [Compound 41, 1-(5-Chloro-1-isobutyl-1H-indazol-7-ylmethyl)-1H-indazole-5-carboxylic acid]
1700	–	CC(C)Cn1ncc2cc(F)cc(Cn3ncc4cc(C(=O)O)ccc43)c21 [Compound 43, 1-(5-Fluoro-1-isobutyl-1H-indazol-7-ylmethyl)-1H-indazole-5-carboxylic acid]
3500	–	CC(C)Cn1ncc2cc(Cl)cc(Cn3ncc4cc(C(=O)O)cnc43)c21 [Compound 49, 1-(5-Chloro-1-isobutyl-1H-indazol-7-ylmethyl)-1H-pyrazolo[3,4-b]pyridine-5-carboxylic acid]
> 10000	–	CC(C)Cn1ncc2cc(Cl)cc(Cn3cnc4cc(C(=O)O)ccc43)c21 [Compound 50, 1-(5-Chloro-1-isobutyl-1H-indazol-7-ylmethyl)-1H-benzoimidazole-5-carboxylic acid]
> 10000	–	CC(C)Cn1ncc2cc(Cl)cc(Cn3cnc4cc(C(=O)O)cnc43)c21 [Compound 51, 3-(5-Chloro-1-isobutyl-1H-indazol-7-ylmethyl)-3H-imidazo[4,5-b]pyridine-6-carboxylic acid]
–	Ag	CC(C)Cn1ncc2cc(Cl)cc(Cn3ccc4cc(C(=O)O)cnc43)c21 [Compound 52, 1-(5-Chloro-1-isobutyl-1H-indazol-7-ylmethyl)-1H-pyrrolo[2,3-b]pyridine-5-carboxylic acid]
4700	–	CC(C)Cn1ncc2cc(Cl)cc(Cc3ncc4cc(C(=O)O)ccn34)c21 [Compound 61, 3-[(5-Chloro-1-isobutyl-indazol-7-yl)methyl]imidazo[1,5-a]pyridine-7-carboxylic acid]
3700	–	CC(C)Cn1ncc2cc(Cl)cc(Cn3nc(N)c4cc(C(=O)O)ccc43)c21 [Compound 68, 3-Amino-1-[(5-chloro-1-isobutyl-indazol-7-yl)methyl]indazole-5-carboxylic acid]
1000	–	CNc1nn(Cc2cc(Cl)cc3cnn(CC(C)C)c23)c2ccc(C(=O)O)cc12 [Compound 70, 1-[(5-Chloro-1-isobutyl-indazol-7-yl)methyl]-3-(methylamino)indazole-5-carboxylic acid]
